Reference: US6706663B2, “Herbicidal 3-heterocyclic substituted benzisothiazole and benzisoxazole compounds” (Wyeth, priority 2000, dated 2004)

Assays:
[1] = test system: ABUTH (Abutilon theophrasti); assay: Postemergence herbicidal evaluation; format: in vivo, Medic.; conditions: postemergence
Procedure, shortened: (§1)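 Seedlings grown about two weeks in flats, sprayed, then kept under standard greenhouse care. Rated visually 4–5 weeks after treatment on a 0–9 scale (stand, vigour, malformation, size, chlorosis, overall appearance) relative to untreated control; repeat tests averaged.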

[2] = test system: AMBEL (Ambrosia artemisifolia); assay: Preemergence herbicidal evaluation; format: in vivo, L.; conditions: rated 4-5 weeks after treatment
Procedure, shortened: (§2)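 Applied before emergence as an aqueous acetone spray over seeded soil. Read-out: 0–9 visual rating covering plant stand, vigor, size, chlorosis, malformation and overall appearance compared with control, taken 4–5 weeks after spraying.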

[3] = test system: CHEAL (Chenopodium album); assay: Preemergence herbicidal evaluation; format: in vivo, L.; conditions: rated 4-5 weeks after treatment
Procedure, shortened: as §2

[4] = test system: CASOB (Cassia obtusifolia); assay: Preemergence herbicidal evaluation; format: in vivo, L.; conditions: rated 4-5 weeks after treatment
Procedure, shortened: as §2

ORYSAT (Rice, Tebonnet) [5] = assay: Preemergence herbicidal evaluation; format: in vivo, Oryza sativa, (L.) Tebonnet; conditions: rated 4-5 weeks after treatment
[6] = test system: ECHCG (Echinochloa crus-galli); assay: Postemergence herbicidal evaluation; format: in vivo, (L.) Beau; conditions: postemergence
Procedure, shortened: as §1

[7] = test system: TRZAWR (Wheat, Winter, cv Riband); assay: Preemergence herbicidal evaluation; format: in vivo, Triticum aestivum; conditions: rated 4-5 weeks after treatment
Procedure, shortened: as §2

[8] = test system: SAGPY (Sagittaria pygmaea); assay: Flooded paddy, preemergence weed control; format: in vivo, L.; conditions: rated 3-4 weeks after treatment, 0-9 rating scale
Procedure, shortened: (§3)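 Preemergence, flooded: propagules planted at 0.5 cm depth in silt loam, water level maintained at 1.5 to 3 cm over soil, containers kept on greenhouse benches. Activity scored 0-9 by eye relative to a control plant.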

ZEAMX (Corn, Field) = assay: Postemergence herbicidal evaluation; format: in vivo, Zea mays, L.; conditions: postemergence
Procedure, shortened: as §1

[9] = test system: CYPSE (Cyperus serotinus); assay: Flooded paddy, preemergence weed control; format: in vivo, Rottb.; conditions: rated 3-4 weeks after treatment, 0-9 rating scale
Procedure, shortened: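 Herbicidal effect was scored visually on a 0–9 scale against an untreated control 3–4 weeks after treatment. Compounds were applied preemergence as 50/50 v/v aqueous/acetone mixtures into flood water (1.5–3 cm deep over silt loam), at roughly 0.0080 to 0.1250 kg/ha active ingredient.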

[10] = test system: IPOHE (Ipomoea hederacea); assay: Postemergence herbicidal evaluation; format: in vivo, (L.) Jacq.; conditions: postemergence
Procedure, shortened: as §1

[11] = test system: AMBEL (Ambrosia artemisifolia); assay: Postemergence herbicidal evaluation; format: in vivo, L.; conditions: postemergence
Procedure, shortened: as §1

[12] = test system: CHEAL (Chenopodium album); assay: Postemergence herbicidal evaluation; format: in vivo, L.; conditions: postemergence
Procedure, shortened: as §1

[13] = test system: CASOB (Cassia obtusifolia); assay: Postemergence herbicidal evaluation; format: in vivo, L.; conditions: postemergence
Procedure, shortened: as §1

ORYSAT (Rice, Tebonnet) [14] = assay: Postemergence herbicidal evaluation; format: in vivo, Oryza sativa, (L.) Tebonnet; conditions: postemergence
Procedure, shortened: as §1

ORYSAT (Rice, Tebonnet) [15] = assay: Flooded paddy, post-transplant rice tolerance; format: in vivo, Oryza sativa, (L.) Tebonnet; conditions: flooded paddy, post-transplant rice, rated 3-4 weeks after treatment, 0-9 rating scale
Procedure, shortened: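 Seedlings aged ten days are transplanted in pairs into undrained pots of silt loam, which are then flooded to a depth of 1.5 to 3 cm. After herbicide application the pots are kept in a greenhouse with the flood maintained. Plants are rated 0-9 by visual comparison with controls.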

[16] = test system: TRZAWR (Wheat, Winter, cv Riband); assay: Postemergence herbicidal evaluation; format: in vivo, Triticum aestivum; conditions: postemergence
Procedure, shortened: as §1

[17] = test system: ABUTH (Abutilon theophrasti); assay: Preemergence herbicidal evaluation; format: in vivo, Medic.; conditions: rated 4-5 weeks after treatment
[18] = test system: ECHORC (Echinochloa oryzoides); assay: Flooded paddy, preemergence weed control; format: in vivo, Echinochloa oryzoides (Ard.) Fritsch.; conditions: rated 3-4 weeks after treatment, 0-9 rating scale
Procedure, shortened: as §3

## Cc1nn(-c2nsc3ccc(-n4c(=O)cc(C(F)(F)F)n(C)c4=O)cc23)c(C)c1C [Compound 49, 1-methyl-6-(trifluoromethyl)-3-[3-(3,4,5-trimethylpyrazol-1-yl)-1,2-benzisothiazol-5-yl]uracil]
[1]; rate 0.0320 kg/ha
  ABUTH herbicidal rating: 0.0
[1]; rate 0.0620 kg/ha
  ABUTH herbicidal rating: 0.0
[2]; Rate 0.0620 kg/ha
  Preemergence herbicidal rating AMBEL: 0.0
[2]; Rate 0.1250 kg/ha
  Preemergence herbicidal rating AMBEL: 0.0
[2]; Rate 0.2500 kg/ha
  Preemergence herbicidal rating AMBEL: 0.0
[3]; Rate 0.0620 kg/ha
  Preemergence herbicidal rating CHEAL: 0.0
[3]; Rate 0.1250 kg/ha
  Preemergence herbicidal rating CHEAL: 0.0
[3]; Rate 0.2500 kg/ha
  Preemergence herbicidal rating CHEAL: 0.0
[4]; Rate 0.0620 kg/ha
  Preemergence herbicidal rating CASOB: 0.0
[4]; Rate 0.1250 kg/ha
  Preemergence herbicidal rating CASOB: 0.0
[4]; Rate 0.2500 kg/ha
  Preemergence herbicidal rating CASOB: 0.0
ORYSAT (Rice, Tebonnet) [5]; Rate 0.0620 kg/ha
  Preemergence herbicidal rating ORYSAT: 0.0
ORYSAT (Rice, Tebonnet) [5]; Rate 0.1250 kg/ha
  Preemergence herbicidal rating ORYSAT: 0.0
ORYSAT (Rice, Tebonnet) [5]; Rate 0.2500 kg/ha
  Preemergence herbicidal rating ORYSAT: 0.0
[6]; rate 0.0320 kg/ha
  ECHCG herbicidal rating: 0.0
[6]; rate 0.0620 kg/ha
  ECHCG herbicidal rating: 0.0
[7]; Rate 0.0620 kg/ha
  Preemergence herbicidal rating TRZAWR: 0.0
[7]; Rate 0.1250 kg/ha
  Preemergence herbicidal rating TRZAWR: 0.0
[7]; Rate 0.2500 kg/ha
  Preemergence herbicidal rating TRZAWR: 0.0
[8]; rate 0.0320 kg/ha
  herbicidal rating, SAGPY: 0.0
[8]; rate 0.1250 kg/ha
  herbicidal rating, SAGPY: 0.0
ZEAMX (Corn, Field); rate 0.0320 kg/ha
  ZEAMX herbicidal rating: 0.5
ZEAMX (Corn, Field); rate 0.0620 kg/ha
  ZEAMX herbicidal rating: 2.5
[9]; rate 0.0320 kg/ha
  herbicidal rating, CYPSE: 0.0
[9]; rate 0.1250 kg/ha
  herbicidal rating, CYPSE: 0.0
[10]; rate 0.0320 kg/ha
  IPOHE herbicidal rating: 5.0
[10]; rate 0.0620 kg/ha
  IPOHE herbicidal rating: 8.0
[11]; rate 0.0320 kg/ha
  AMBEL herbicidal rating: 0.0
[11]; rate 0.0620 kg/ha
  AMBEL herbicidal rating: 0.0
[12]; rate 0.0320 kg/ha
  CHEAL herbicidal rating: 0.0
[12]; rate 0.0620 kg/ha
  CHEAL herbicidal rating: 0.0
[13]; rate 0.0320 kg/ha
  CASOB herbicidal rating: 0.0
[13]; rate 0.0620 kg/ha
  CASOB herbicidal rating: 0.0
ORYSAT (Rice, Tebonnet) [14]; rate 0.0320 kg/ha
  ORYSAT herbicidal rating: 0.5
ORYSAT (Rice, Tebonnet) [14]; rate 0.0620 kg/ha
  ORYSAT herbicidal rating: 1.5
ORYSAT (Rice, Tebonnet) [15]; rate 0.0320 kg/ha
  herbicidal rating, ORYSAT (rice tolerance): 0.0
ORYSAT (Rice, Tebonnet) [15]; rate 0.1250 kg/ha
  herbicidal rating, ORYSAT (rice tolerance): 0.0
[16]; rate 0.0320 kg/ha
  TRZAWR herbicidal rating: 0.5
[16]; rate 0.0620 kg/ha
  TRZAWR herbicidal rating: 1.5
[17]; Rate 0.0620 kg/ha
  Preemergence herbicidal rating ABUTH: 0.0
[17]; Rate 0.1250 kg/ha
  Preemergence herbicidal rating ABUTH: 0.0
[17]; Rate 0.2500 kg/ha
  Preemergence herbicidal rating ABUTH: 0.0
[18]; rate 0.0320 kg/ha
  herbicidal rating, ECHORC: 0.0
[18]; rate 0.1250 kg/ha
  herbicidal rating, ECHORC: 0.0

## C[C@@H]1C[C@H](C)OC(c2nsc3ccc(-n4c(=O)cc(C(F)(F)F)n(C)c4=O)cc23)O1 (stereo partly drawn) [Compound 50, 3-[3-[(4R,6S)-4,6-dimethyl-m-dioxan-2-yl]-1,2-benzisothiazol-5-yl]-1-methyl-6-(trifluoromethyl)uracil]
[1]; rate 0.0320 kg/ha
  ABUTH herbicidal rating: 9.0
[1]; rate 0.0620 kg/ha
  ABUTH herbicidal rating: 9.0
[2]; Rate 0.0620 kg/ha
  Preemergence herbicidal rating AMBEL: 9.0
[2]; Rate 0.1250 kg/ha
  Preemergence herbicidal rating AMBEL: 9.0
[2]; Rate 0.2500 kg/ha
  Preemergence herbicidal rating AMBEL: 9.0
[3]; Rate 0.0620 kg/ha
  Preemergence herbicidal rating CHEAL: 9.0
[3]; Rate 0.1250 kg/ha
  Preemergence herbicidal rating CHEAL: 9.0
[3]; Rate 0.2500 kg/ha
  Preemergence herbicidal rating CHEAL: 9.0
[4]; Rate 0.0620 kg/ha
  Preemergence herbicidal rating CASOB: 5.5
[4]; Rate 0.1250 kg/ha
  Preemergence herbicidal rating CASOB: 6.5
[4]; Rate 0.2500 kg/ha
  Preemergence herbicidal rating CASOB: 9.0
ORYSAT (Rice, Tebonnet) [5]; Rate 0.0620 kg/ha
  Preemergence herbicidal rating ORYSAT: 6.5
ORYSAT (Rice, Tebonnet) [5]; Rate 0.1250 kg/ha
  Preemergence herbicidal rating ORYSAT: 8.5
ORYSAT (Rice, Tebonnet) [5]; Rate 0.2500 kg/ha
  Preemergence herbicidal rating ORYSAT: 9.0
[6]; rate 0.0320 kg/ha
  ECHCG herbicidal rating: 3.0
[6]; rate 0.0620 kg/ha
  ECHCG herbicidal rating: 3.0
[7]; Rate 0.0620 kg/ha
  Preemergence herbicidal rating TRZAWR: 7.0
[7]; Rate 0.1250 kg/ha
  Preemergence herbicidal rating TRZAWR: 8.0
[7]; Rate 0.2500 kg/ha
  Preemergence herbicidal rating TRZAWR: 9.0
[8]; rate 0.0080 kg/ha
  herbicidal rating, SAGPY: 0.0
[8]; rate 0.0320 kg/ha
  herbicidal rating, SAGPY: 0.0
[8]; rate 0.1250 kg/ha
  herbicidal rating, SAGPY: 4.5
ZEAMX (Corn, Field); rate 0.0320 kg/ha
  ZEAMX herbicidal rating: 4.0
ZEAMX (Corn, Field); rate 0.0620 kg/ha
  ZEAMX herbicidal rating: 5.0
[9]; rate 0.0320 kg/ha
  herbicidal rating, CYPSE: 5.0
[9]; rate 0.1250 kg/ha
  herbicidal rating, CYPSE: 7.0
[10]; rate 0.0320 kg/ha
  IPOHE herbicidal rating: 9.0
[10]; rate 0.0620 kg/ha
  IPOHE herbicidal rating: 9.0
[11]; rate 0.0320 kg/ha
  AMBEL herbicidal rating: 9.0
[11]; rate 0.0620 kg/ha
  AMBEL herbicidal rating: 9.0
[12]; rate 0.0320 kg/ha
  CHEAL herbicidal rating: 8.0
[12]; rate 0.0620 kg/ha
  CHEAL herbicidal rating: 9.0
[13]; rate 0.0320 kg/ha
  CASOB herbicidal rating: 5.0
[13]; rate 0.0620 kg/ha
  CASOB herbicidal rating: 5.0
ORYSAT (Rice, Tebonnet) [14]; rate 0.0320 kg/ha
  ORYSAT herbicidal rating: 5.5
ORYSAT (Rice, Tebonnet) [14]; rate 0.0620 kg/ha
  ORYSAT herbicidal rating: 4.5
ORYSAT (Rice, Tebonnet) [15]; rate 0.0080 kg/ha
  herbicidal rating, ORYSAT (rice tolerance): 3.0
ORYSAT (Rice, Tebonnet) [15]; rate 0.0320 kg/ha
  herbicidal rating, ORYSAT (rice tolerance): 6.5
ORYSAT (Rice, Tebonnet) [15]; rate 0.1250 kg/ha
  herbicidal rating, ORYSAT (rice tolerance): 8.5
[16]; rate 0.0320 kg/ha
  TRZAWR herbicidal rating: 4.5
[16]; rate 0.0620 kg/ha
  TRZAWR herbicidal rating: 4.5
[17]; Rate 0.0620 kg/ha
  Preemergence herbicidal rating ABUTH: 9.0
[17]; Rate 0.1250 kg/ha
  Preemergence herbicidal rating ABUTH: 9.0
[17]; Rate 0.2500 kg/ha
  Preemergence herbicidal rating ABUTH: 9.0
[18]; rate 0.0080 kg/ha
  herbicidal rating, ECHORC: 7.0
[18]; rate 0.0320 kg/ha
  herbicidal rating, ECHORC: 7.5
[18]; rate 0.1250 kg/ha
  herbicidal rating, ECHORC: 9.0
